# Measured values as given in US4713445A, “Renin inhibitors and treatments using them” (priority 1983, dated 1987).
# *1 amine or outer side, *2 acyl side, *3 side chain or, on linkers, in order; H or OH if unused. Where a SMILES comes first, the peptide text is derived from it. [ ]: non-standard residue; d: D form. The star is where a group is joined. Leuψ(CH2NH)ValIleHisOH = CC[C@H](C)[C@H](NC(=O)[C@@H](NC[C@H](CC(C)C)N*)C(C)C)C(=O)N[C@@H](Cc1c[nH]cn1)C(=O)O; X5 = CC(C)C[C@@H](CN[C@H](C(=O)N[C@@H](Cc1c[nH]cn1)C(=O)NCCCCCN)C(C)C)N*; X2 = CC(C)C[C@@H](CN[C@H](C(=O)N[C@@H](Cc1c[nH]cn1)C(=O)NCCCN)C(C)C)N*; X1 = CC(C)C[C@H](N[*:1])[C@@H](O)C[C@H](C(=O)[*:2])C(C)C; X4 = CC(C)C[C@H](N[*:1])[C@@H](O)CCC(=O)[*:2]; Boc = CC(C)(C)OC(=O)*
# Target: T1, human renin (Homo sapiens, UniProt P00797)
# T1 construct: angiotensin-I released from human renin substrate by human resin in human plasma; from tissue; host or cells: human plasma (containing EDTA)
# T1 sequence (P00797 67-406): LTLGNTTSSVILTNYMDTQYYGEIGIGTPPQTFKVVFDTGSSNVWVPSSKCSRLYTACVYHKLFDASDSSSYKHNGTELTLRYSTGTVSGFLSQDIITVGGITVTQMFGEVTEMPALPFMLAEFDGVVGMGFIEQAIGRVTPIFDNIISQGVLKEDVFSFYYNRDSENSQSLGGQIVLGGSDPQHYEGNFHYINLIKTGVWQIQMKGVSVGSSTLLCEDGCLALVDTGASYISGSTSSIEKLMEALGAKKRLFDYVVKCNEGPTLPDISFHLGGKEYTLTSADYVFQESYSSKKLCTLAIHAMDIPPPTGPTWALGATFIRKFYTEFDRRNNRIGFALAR
# Experiment: human renin-renin substrate reaction in vitro; radioimmunoassay of angiotensin-I released in human plasma
# Type: biochemical
# Details: Table 2; read-out: IC50 μM v/s human renin
# Description: Preliminary activity test results in the human […] substrate reaction in vitro are given, with comparative figures for the tetrapeptide analogue (III). […] The test results given herein are based on the methods described by J. A. Miller et al in Clinica Chimica Acta (1980) 101 5-15 and K. Poulsen and J. Jorgensen in J. Clin. Endocrinol. Metab. (1974) 39 816, and is based on the measurement, by radioimmunoassay, of angiotensin-I released from human renin substrate by human resin in human plasma. The inhibitor is dissolved in 0.01N HCl (10 μl) and added to hmman plasma (75 μl) containing EDTA, and angiotensin-I antibody (15 μl) in 3M-Tris/HCl buffer (pH 6.9). After incubation at 37° C. for 0-120 minutes, the enzymic reaction is quenched by the addition of ice-cold 0.25M Tris/HCl buffer (pH 7.4) containing 0.01% of bovine serum albumin. 125I-labelled angiotensin-I is added, followed by equilibration at 4° C. for 48 hours. Free and bound ligand are separated by the addition of dextrancoated charcoal, and the amount of bound radio-ligand determined in a gamma counter.
row,IC50,SMILES
1,0.0035 µM,CC[C@H](C)[C@H](NC(=O)[C@@H](C[C@H](O)[C@H](CC(C)C)NC(=O)[C@H](Cc1c[nH]cn1)NC(=O)[C@H](Cc1ccccc1)NC(=O)OC(C)(C)C)C(C)C)C(=O)N[C@@H](Cc1c[nH]cn1)C(=O)OC [Example LI] (Boc-FH[X1]IH-OMe)
2,0.005 µM,CC[C@H](C)[C@H](NC(=O)[C@@H](C[C@H](O)[C@H](CC(C)C)NC(=O)[C@H](Cc1c[nH]cn1)NC(=O)[C@H](Cc1ccccc1)NC(=O)OC(C)(C)C)C(C)C)C(=O)OC [Example L]
3,11 µM,CC[C@H](C)[C@H](NC(=O)[C@@H](C[C@H](O)[C@@H](N)CC(C)C)C(C)C)C(=O)N[C@@H](Cc1c[nH]cn1)C(=O)N[C@@H](CCCCN)C(=O)O [Example XLI]
4,0.3 µM,CC[C@H](C)[C@H](NC(=O)CC[C@H](O)[C@H](CC(C)C)NC(=O)[C@H](Cc1c[nH]cn1)NC(=O)[C@H](Cc1ccccc1)NC(=O)OC(C)(C)C)C(=O)N[C@@H](Cc1c[nH]cn1)C(=O)O [Example XLVIII] (Boc-FH[X4]IH-OH)
5,5 µM,CC[C@H](C)[C@H](NC(=O)[C@@H](C[C@H](O)[C@H](CC(C)C)NC(=O)[C@H](Cc1c[nH]cn1)NC(=O)[C@@H](N)Cc1ccccc1)C(C)C)C(=O)N[C@@H](Cc1c[nH]cn1)C(=O)O [Example XLVII] (H-FH[X1]IH-OH)
6,0.007 µM,CC[C@H](C)[C@H](NC(=O)[C@@H](C[C@H](O)[C@H](CC(C)C)NC(=O)[C@H](Cc1c[nH]cn1)NC(=O)[C@H](Cc1ccccc1)NC(=O)OC(C)(C)C)C(C)C)C(=O)N[C@@H](Cc1c[nH]cn1)C(=O)O [Example XLVI] (Boc-FH[X1]IH-OH)
7,29 µM,CC[C@H](C)[C@H](NC(=O)[C@@H](C[C@H](O)[C@@H](N)CC(C)C)C(C)C)C(=O)N[C@@H](Cc1c[nH]cn1)C(=O)O [XLIII]
8,0.018 µM,CC[C@H](C)[C@H](NC(=O)[C@@H](C[C@H](O)[C@H](CC(C)C)NC(=O)[C@H](Cc1c[nH]cn1)NC(=O)[C@H](Cc1ccccc1)NC(=O)OC(C)(C)C)C(C)C)C(=O)N[C@@H](Cc1ccccc1)C(=O)OC [XLIX] (Boc-FH[X1]IF-OMe)

# Same assay, conditions: Table 5; human renin-renin substrate reaction in vitro; read-out: IC50
row,SMILES,IC50
1,"CC(C)C[C@@H](CN[C@@H](CC(C)C)C(=O)N[C@H](C(=O)N[C@@H](Cc1ccc(O)cc1)C(=O)O)C(C)C)NC(=O)[C@H](Cc1c[nH]cn1)NC(=O)[C@H](Cc1ccccc1)NC(=O)[C@@H]1CCCN1C(=O)[C@@H](N)Cc1c[nH]cn1 [Example I, H-His-Pro-Phe-His-Leu-reduced-Leu-Val-Tyr-OH]",1 µM
2,"CC(C)C[C@@H](CN[C@@H](CC(C)C)C(=O)N[C@H](C(=O)N[C@@H](Cc1ccc(O)cc1)C(=O)O)C(C)C)NC(=O)[C@H](Cc1c[nH]cn1)NC(=O)[C@H](Cc1ccccc1)NC(=O)[C@@H]1CCCN1 [Example II, H-Pro-Phe-His-Leu-reduced-Leu-Val-Tyr-OH]",17 µM
3,"CC(C)C[C@@H](CN([C@@H](CC(C)C)C(=O)N[C@H](C(=O)N[C@@H](Cc1ccc(O)cc1)C(=O)O)C(C)C)S(=O)(=O)c1ccccc1)NC(=O)[C@H](Cc1c[nH]cn1)NC(=O)[C@H](Cc1ccccc1)NC(=O)[C@@H]1CCCN1C(=O)[C@@H](N)Cc1c[nH]cn1 [Example III, H-His-Pro-Phe-His-Leu-reduced (SO2 Ph)-Leu-Val-Tyr-OH]",1.5 µM
4,"CC(C)C[C@@H](CN[C@@H](CC(C)C)C(=O)N[C@H](C(=O)N[C@@H](Cc1ccc(O)cc1)C(=O)O)C(C)C)NC(=O)[C@H](Cc1c[nH]cn1)NC(=O)[C@H](Cc1ccccc1)NC(=O)[C@@H]1CCCN1C(=O)[C@H](N)Cc1c[nH]cn1 [Example IV, H-DHis-Pro-Phe-His-Leu-reduced-Leu-Val-Tyr-OH]",1 µM
5,CC(C)C[C@@H](CN[C@@H](Cc1ccccc1)C(=O)N[C@H](C(=O)N[C@@H](Cc1ccc(O)cc1)C(=O)O)C(C)C)NC(=O)[C@H](Cc1c[nH]cn1)NC(=O)[C@H](Cc1ccccc1)NC(=O)[C@@H]1CCCN1C(=O)[C@@H](N)Cc1c[nH]cn1 [Example IX],2.5 µM
6,CC(C)[C@H](NC(=O)[C@H](Cc1ccccc1)NC[C@H](Cc1ccccc1)NC(=O)[C@H](Cc1c[nH]cn1)NC(=O)[C@H](Cc1ccccc1)NC(=O)[C@@H]1CCCN1C(=O)[C@@H](N)Cc1c[nH]cn1)C(=O)N[C@@H](Cc1ccc(O)cc1)C(=O)O [Example VIII],1.3 µM
7,CC(C)[C@H](NC(=O)[C@H](Cc1ccccc1)NC[C@H](Cc1ccccc1)NC(=O)[C@H](Cc1c[nH]cn1)NC(=O)[C@H](Cc1ccccc1)NC(=O)[C@@H]1CCCN1C(=O)[C@H](Cc1c[nH]cn1)NC(=O)[C@@H]1CCCN1)C(=O)N[C@@H](Cc1ccc(O)cc1)C(=O)N[C@@H](CCCCN)C(=O)O [Example XI],0.05 µM

# The remaining lines, values ahead:
row,IC50,SMILES
1,0.26 µM,"CC[C@H](C)[C@H](NC(=O)[C@@H](NC[C@H](CC(C)C)NC(=O)[C@H](Cc1c[nH]cn1)NC(=O)[C@H](Cc1ccccc1)NC(=O)[C@@H]1CCCN1C(=O)[C@@H](N)Cc1c[nH]cn1)C(C)C)C(=O)N[C@@H](Cc1c[nH]cn1)C(=O)O [Example V, H-His-Pro-Phe-His-Leu-reduced-Val-Ile-His-OH] (H-HPFH-{Leuψ(CH2NH)ValIleHisOH})"
2,1.5 µM,CC(C)C[C@@H](CN[C@H](C(=O)N[C@H](C(=O)N[C@@H](Cc1ccc(O)cc1)C(=O)O)C(C)C)C(C)C)NC(=O)[C@H](Cc1c[nH]cn1)NC(=O)[C@H](Cc1ccccc1)NC(=O)[C@@H]1CCCN1C(=O)[C@@H](N)Cc1c[nH]cn1 [Example XII]
3,0.2 µM,CC[C@H](C)[C@H](NC(=O)[C@@H](NC[C@H](CC(C)C)NC(=O)[C@H](Cc1c[nH]cn1)NC(=O)[C@H](Cc1ccccc1)NC(=O)[C@@H]1CCCN1C(=O)[C@@H](N)Cc1c[nH]cn1)C(C)C)C(=O)N[C@@H](Cc1ccc(O)cc1)C(=O)O [Example X]

# Same assay, conditions: Table I; human renin in human plasma; read-out: IC50, μM human
row,IC50,SMILES
1,0.2 µM,CC[C@H](C)[C@H](NC(=O)[C@@H](NC[C@H](CC(C)C)NC(=O)[C@H](Cc1c[nH]cn1)NC(=O)[C@H](Cc1ccccc1)NC(=O)[C@@H]1CCCN1C(=O)[C@@H](Cc1c[nH]cn1)NC(=O)[C@@H]1CCCN1)C(C)C)C(=O)N[C@@H](Cc1c[nH]cn1)C(=O)N[C@H](CCCCN)C(=O)O [Example XL]
2,0.008 µM,CC[C@H](C)[C@H](NC(=O)[C@@H](NC[C@H](CC(C)C)NC(=O)[C@H](Cc1c[nH]cn1)NC(=O)[C@H](Cc1ccccc1)NC(=O)[C@@H]1CCCN1C(=O)[C@H](Cc1c[nH]cn1)NC(=O)[C@@H]1CCCN1)C(C)C)C(=O)N[C@@H](Cc1c[nH]cn1)C(=O)N[C@@H](CCCCN)C(=O)O [XIX]
3,3 µM,CC(C)C[C@@H](CN[C@H](C(=O)N[C@@H](Cc1c[nH]cn1)C(=O)NCCCCCN)C(C)C)NC(=O)[C@H](Cc1c[nH]cn1)NC(=O)[C@H](Cc1ccccc1)NC(=O)[C@@H]1CCCN1C(=O)[C@H](Cc1c[nH]cn1)NC(=O)[C@@H]1CCCN1 [XVIII] (H-PHPFH-X5)
4,4.5 µM,CC(C)C[C@@H](CN[C@H](C(=O)N[C@@H](Cc1c[nH]cn1)C(=O)NCCCN)C(C)C)NC(=O)[C@H](Cc1c[nH]cn1)NC(=O)[C@H](Cc1ccccc1)NC(=O)[C@@H]1CCCN1C(=O)[C@H](Cc1c[nH]cn1)NC(=O)[C@@H]1CCCN1 [XVII] (H-PHPFH-X2)
5,1 µM,CC[C@H](C)[C@H](NC(=O)[C@@H](NC[C@H](CC(C)C)NC(=O)[C@H](Cc1c[nH]cn1)NC(=O)[C@H](Cc1ccccc1)NC(=O)[C@@H]1CCCN1C(=O)[C@@H](N)Cc1c[nH]cn1)C(C)C)C(=O)N[C@H](Cc1ccc(O)cc1)C(=O)O [XVI]
6,0.025 µM,CC[C@H](C)[C@H](NC(=O)[C@@H](NC[C@H](CC(C)C)NC(=O)[C@H](Cc1c[nH]cn1)NC(=O)[C@H](Cc1ccccc1)NC(=O)[C@@H]1CCCN1C(=O)[C@H](Cc1c[nH]cn1)NC(=O)[C@H]1CCCN1)C(C)C)C(=O)N[C@@H](Cc1c[nH]cn1)C(=O)O [XXIII] (H-[dP]HPFH-{Leuψ(CH2NH)ValIleHisOH})
7,0.01 µM,CC[C@H](C)[C@H](NC(=O)[C@@H](NC[C@H](CC(C)C)NC(=O)[C@H](Cc1c[nH]cn1)NC(=O)[C@H](Cc1ccccc1)NC(=O)[C@@H]1CCCN1C(=O)[C@H](Cc1c[nH]cn1)NC(=O)[C@@H]1CCCN1)C(C)C)C(=O)N[C@@H](Cc1c[nH]cn1)C(=O)O [XXII] (H-PHPFH-{Leuψ(CH2NH)ValIleHisOH})
8,0.55 µM,CC[C@H](C)[C@H](NC(=O)[C@@H](NC[C@H](CC(C)C)NC(=O)[C@H](Cc1c[nH]cn1)NC(=O)[C@H](Cc1ccccc1)NC(=O)[C@@H]1CCCN1C(=O)[C@@H](N)CCCNC(=N)N)C(C)C)C(=O)N[C@@H](Cc1ccc(O)cc1)C(=O)O [XXIV]
9,0.05 µM,CC[C@H](C)[C@H](NC(=O)[C@@H](NC[C@H](CC(C)C)NC(=O)[C@H](Cc1c[nH]cn1)NC(=O)[C@H](Cc1ccccc1)NC(=O)[C@@H]1CCCN1C(=O)[C@@H](N)Cc1c[nH]cn1)C(C)C)C(=O)N[C@@H](Cc1c[nH]cn1)C(=O)N[C@H](CCCCN)C(=O)O [XXI]
10,5.5 µM,CC[C@H](C)[C@H](NC(=O)[C@@H](NC[C@H](CC(C)C)NC(=O)[C@H](Cc1c[nH]cn1)NC(=O)[C@H](Cc1ccccc1)NC(=O)[C@H]1CCCN1C(=O)[C@@H](N)Cc1c[nH]cn1)C(C)C)C(=O)N[C@@H](Cc1c[nH]cn1)C(=O)O [XXXII] (H-H[dP]FH-{Leuψ(CH2NH)ValIleHisOH})
